# Entries after “also recorded” stand apart in the source; their conditions may differ. Where no end group is shown, it is not given here.
# Assays:
# [1] = system: Murine psoriasis vulgaris-like skin inflammation model; test: IMQ-induced psoriasis vulgaris-like skin inflammation model, keratinocyte proliferation by BrdU incorporation; format: in vivo, BALB/c mice
# Method: (§1) BALB/c mice (8-weeks old females; n=42) were used in this model system. […] Accordingly, in this model, each BALB/c mice received a daily topical dose (62.5 mg) of commercially available IMQ cream (Imiquimod Cream 5% w/w, Aldara™) on the shaved back and the right ear for 6 consecutive days (n=6); whereas the control mice (normal group) were treated with a control cream (n=6). For treatment, each test peptide was mixed with IMQ cream to give a concentration of 25 μM (n=6 per group). Keratinocyte proliferation was determined by BrdU incorporation. BrdU (Sigma-Aldrich) was reconstituted in DMSO as a stock solution of 80 mM. 10 μl of BrdU mixed with 90 μl of PBS was intraperitoneally injected into each mouse for 24 hr prior to euthanasia.
# (§2) Slides were blocked with 10% goat serum for 60 min and then incubated with primary antibody against BrdU (1:50 dilution; GTX42641) for 3 hr at RT. The slides were then incubated with peroxidase-labeled donkey immunoglobulin for 30 min and then incubated with chromogen substrate (3,3′-diaminobenzidine) for 2 min before counterstaining with hematoxylin. Quantification was estimated based on high quality images (1208×960 pixels buffer) captured using a Nikon Eclipse 80i light microscope.
# [2] = system: Murine psoriasis vulgaris-like skin inflammation model; test: IMQ-induced psoriasis vulgaris-like skin inflammation model, H&E histology of back skin; format: in vivo, BALB/c mice
# Method: as §1
# Back skin of the mouse was fixed overnight in 4% paraformaldehyde, dehydrated with graded ethanol series, and paraffinized. Fixed samples were deparaffinized in xylene and rehydrated in a graded series of ethanol. Tissues were sliced into 5-μm sections. General histology was performed using hematoxylin and eosin (H&E) (Merck, Rayway, N.J., USA).
# as §2
# myeloma RPMI 8226 cell = test: MTT assay, cell viability; format: cell-based, human; settings: 20 μM peptide, 24 h, serum-free RPMI1640; FIGS. 1-2
# Method: The multiple myeloma line RPMI8226 or […] Raw264.7 macrophages were cultivated in complex medium (RPMI1640) supplemented with 10% (vol/vol) heat-inactivated fetal calf serum (Invitrogen), 50 μg/mL penicillin, 50 μg/mL streptomycin, and 2 mM L-glutamine at 37° C. in a 5% CO2 atmosphere
# RPMI8226 cells or U266 cells were cultured in serum-free RPMI1640 medium for 24 h, and then cells seeded in 48-well culture plates (3×10^5 cells/well) and cultured in 0.5 ml fresh serum-free RPMI1640 medium containing 20 μM peptide for further 24 h. The cell viability was determined by the MTT assay.
# 50 μL of the MTT stock solution (5 mg MTT dissolved in 1 ml of sterile PBS) was added to each well, and 50 μL of the MTT stock solution was added to 500 μL of medium alone and used as a negative control. Each sample was Incubates at 37° C. for 4 hours. Aliquots (450 μl) from each sample were taken to a new well of 48-well culture plate, adding 100 μL DMSO, mixing thoroughly using the pipette and reacted at 37° C. for 20 min and absorbance was measured at 570 nm.
# Murine dry eye model [3] = test: Dry eye animal model, fluorescein eye stain test for corneal injuries; format: in vivo, C57BL/6 mice; settings: peptide 50 μM topically three times a day for 4 days
# Method: (§3) C57BL/6 mice (7-8 weeks old, each weighted about 18 to 25 g) were used in this model system. All mice were maintained in the animal facility in accordance with the procedures approved by Mackay Memorial Hospital Review Board (Taiwan, R.O. C.). All animal experimental procedures were conducted according to the ARVO Statement for the Use of Animals in Ophthalmic and Vision Research.
# (§4) Dry eyes were induced by placing mice in a controlled environment chamber (CEC) for 14 days in accordance with procedures previously described by Barabino et al (IVOS (2005) 46(8), 2766-2771). Mice placed in the CEC were exposed to a condition, in which relative humidity (RH) was maintained at <25%, temperature at 20-22° C., and airflow at about 15 L/min, for 12 hours per day. Control mice were kept in a normal environment (RH>50%, no air flow, temperature of 20-22° C.) for the same duration.
# (§5) A common artificial tear formulation, 1% carboxymethylcelllulose (CMC) dissolved in balanced salt solution (BSS) was used as the peptide vehicle. Peptide (50 μM) or 1% CMC vehicle was topically administered to eyes three times a day, for 4 days.
# Corneal epithelial injury was determined by staining with topical fluorescein (100 mg/ml or 10%; FLUORESCITE™, Alcon Laboratories). For dosing, topical fluorescein (0.6 μL of 0.5% sodium fluorescein dissolved in 4.4 μL BSS per eye) was applied via a micro-pipette to the lateral canthus for 15 sec. Corneal fluorescein staining was examined with a slit-lamp biomicroscope under cobalt blue light and photographed with a digital camera. Data is presented as mean±SD. Dye staining of the cornea was scored in a blinded manner as follows: score 0 for no punctuate staining; score 1 when less than one third of the cornea was stained; score 2 when two thirds or less was stained; and score 3 when more than two thirds was stained.
# RPMI8226 cells [4] = test: Annexin V/propidium iodide apoptosis by flow cytometry; format: cell-based, human; settings: treatment for 24 hr; control untreated cells less than 15%; FIG. 6
# Method: Annexin V/propidium iodide (PI) staining was performed using flow cytometry according to the manufacturer's guidelines (Annexin V-FITC Apoptosis Detection kit; Roche). Briefly, 0.5×10^6 cells were washed in ice-cold PBS without Ca^2+ or Mg^2+ (Life Technologies). The cells were then re-suspended in 100 μl of binding buffer and incubated with 5.0 μl of PI and 2.0 μl of annexin V-fluorescein isothiocynate for 15 min in the dark at room temperature. Flow cytometric analysis was immediately performed using a FACScalibur Instrument (Becton Dickinson).
# [5] = system: Murine psoriasis vulgaris-like skin inflammation model; test: IMQ-induced psoriasis vulgaris-like skin inflammation model, skin appearance; format: in vivo, BALB/c mice; settings: 25 μM with IMQ cream, topical daily, six consecutive days; FIG. 7
# Method: as §1
# RPMI8226 cells [6] = test: Trypan blue exclusion assay; format: cell-based, human; settings: vs solvent (DMSO) 7.5±1.3, FIG. 5
# Method: (§6) The multiple myeloma line RPMI8226 or rat Raw264.7 macrophages were cultivated in complex medium (RPMI1640) supplemented with 10% (vol/vol) heat-inactivated fetal calf serum (Invitrogen), 50 μg/mL penicillin, 50 μg/mL streptomycin, and 2 mM L-glutamine at 37° C. in a 5% CO2 atmosphere RPMI8226 cells or U266 cells were cultured in serum-free RPMI1640 medium for 24 h, and then cells seeded in 48-well culture plates (3×10^5 cells/well) and cultured in 0.5 ml fresh serum-free RPMI1640 medium containing 20 μM peptide for further 24 h. The cell viability was determined by the MTT assay. The cells were examined under a microscope with the aid of a hemacytometer, in which 0.1 mL of trypan blue stock solution (0.4% solution of trypan blue in isotonic salt buffer solution, pH 7.2) was added to 1 mL cell suspension, and loaded therein. The number of blue staining cells (considered non-viable) and the number of total cells were respectively counted. Cell viability should be at least 95% for healthy log-phase cultures.
# U266 cells = test: Trypan blue exclusion assay; format: cell-based, human; settings: vs solvent (DMSO) 8.7±1.1, FIG. 5
# Method: as §6, with “RPMI8226” for “The multiple myeloma line RPMI8226 or rat Raw264.7 macrophages were cultivated in complex medium (RPMI1640) supplemented with 10% (vol/vol) heat-inactivated fetal calf serum (Invitrogen), 50 μg/mL penicillin, 50 μg/mL streptomycin, and 2 mM L-glutamine at 37° C. in a 5% CO2 atmosphere RPMI8226”
# Murine dry eye model [7] = test: Dry eye animal model, tear production by phenol red thread test; format: in vivo, C57BL/6 mice; settings: treated for 4 days; P<0.01 versus vehicle treatment; FIG. 4
# Method: as §3, §4, §5
# Tear production was measured with phenol red-impregnated cotton threads (Zone-Quick; Oasis, Glendora, Calif.). The validity of this test in mice was performed as previously described (Dursun et al., Invest Ophthalmol Vis Sci. 2002; 43:632-8). The threads were held with jeweler forceps and placed in the lateral canthus for 60 seconds. The tear production expressed in millimeters of thread wet by the tear and turned red.
substance,measurement,setting,value
"NH2-Asp-Ile-Thr-Tyr-Val-Arg-Leu-Lys-Phe-COOH (DITYVRLKF; not fully specified (N-terminus, C-terminus); printed as NH2-Asp-Ile-Thr-Tyr-Val-Arg-Leu-Lys-Phe-COOH) [9-mer, short synthetic peptide …]","hyperproliferation of keratinocytes, BrdU-positive cells in the epidermis (labeling index)","[1]; 25 μM with IMQ cream, day 6, IMQ control 24.5±2.0, FIG. 9 panel B",8.3±1.4%
same,location of BrdU-positive cells in the epidermis,"[1]; day 6 after IMQ treatment, FIG. 9 panel A",restrict to the basal layer of the epidermis
same,"acanthosis, quantified epidermal thickness","[2]; 25 μM with IMQ cream, 6 days, IMQ control 122±10.5, FIG. 8 panel B",39.2±2.7 μm
same,"acanthosis and desquamation in skin sections (H&E staining), result in words","[2]; vs IMQ-treated skin sections, FIG. 8 panel A",decrease in acanthosis and less desquamation
same,myeloma RPMI 8226 cell viability (MTT assay),myeloma RPMI 8226 cell,successfully suppressed myeloma RPMI 8226 cell viability; also recorded: effective in suppressing myeloma cell viability
same,reduction in mean corneal fluorescein staining score compared with vehicle treated control mice,Murine dry eye model [3]; FIG. 3 panel B,about 3 fold
same,"corneal fluorescein stain (corneal damage), result in words",Murine dry eye model [3]; vs vehicle,reduced significantly
same,myeloma cells exhibiting apoptotic phosphatidylserine exposure (annexin-V staining),RPMI8226 cells [4],approximately 54%
same,skin inflammation and desquamation,[5],reduced level of dosal skin inflammation and desquamation
same,cell viability by trypan blue assay,RPMI8226 cells [6],59.7±4.5
same,cell viability by trypan blue assay,U266 cells,47.0±4.6
same,tear volume (tear production),Murine dry eye model [7],significantly increased

# Source: patent US10875891B2, “Short synthetic peptide and uses thereof” (MacKay Memorial Hospital, priority 2018, dated 2020)
